Target: T1, rat adrenergic α1A receptor (Rattus norvegicus, UniProt P43140)
T1 construct: rat adrenergic α1A receptor obtained from Wistar Rat submaxillary glands; from tissue; host or cells: Wistar Rat submaxillary glands
T1 sequence (P43140 1-466): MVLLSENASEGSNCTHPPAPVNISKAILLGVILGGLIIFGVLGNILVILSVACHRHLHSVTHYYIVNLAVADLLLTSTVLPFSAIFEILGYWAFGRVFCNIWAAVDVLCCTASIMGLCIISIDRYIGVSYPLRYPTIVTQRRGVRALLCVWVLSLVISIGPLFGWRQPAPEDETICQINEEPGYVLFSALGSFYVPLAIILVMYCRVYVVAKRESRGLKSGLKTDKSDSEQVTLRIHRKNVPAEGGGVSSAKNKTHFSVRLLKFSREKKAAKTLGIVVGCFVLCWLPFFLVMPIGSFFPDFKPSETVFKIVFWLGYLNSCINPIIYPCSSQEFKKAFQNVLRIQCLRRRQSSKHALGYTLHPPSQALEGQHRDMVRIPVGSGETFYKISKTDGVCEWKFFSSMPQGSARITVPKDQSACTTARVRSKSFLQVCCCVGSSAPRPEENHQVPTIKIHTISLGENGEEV
Experiment: Adrenergic α1A radioligand binding assay
Conditions: [3H]Prozosin specific binding, read-out: Percent Inhibition of ligand binding, Adrenergic (0.1 μM ligand conc.) α1A
Protocol: To evaluate in radioligand binding assays the activity of compounds of the invention, rat adrenergic α1A receptor obtained from Wistar Rat submaxillary glands (Michel, A. D. et al., Br. J. Pharmacol. (1989), 98:883] in a modified Tris-HCl buffer (50 mM Tris-HCl buffer, pH 7.4, 0.5 mM EDTA) was used. Compounds of the invention were incubated with 0.25 nM [^3H]Prozosin for 60 min. at 25° C. Non-specific binding was estimated in the presence of 10 μM phentolamine. Receptor proteins were filtered and washed, the filters were then counted to determine [^3H]Prozosin specifically bound. Compounds of the invention were screened at 1 μM or lower, using 1% DMSO as vehicle. Compounds of the invention were tested in this biochemical assay. Biochemical assay results for representative compounds were presented as the percent inhibition of specific binding in Table 3.

Structure (SMILES) | inhibition at 0.1 µM [%]
C/C(=C\n1c2c(c3cc(C)ccc31)C1CCN(C2)C1)c1ccc(Cl)cc1Cl (stereo not drawn) [Compound 33] | 3
COc1ccc(/C(C)=C/n2c3c(c4cc(C)ccc42)C2CCN(C3)C2)cc1 (stereo not drawn) [Compound 45] | 24
C/C(=C\n1c2c(c3cc(C)ccc31)C1CCN(C2)C1)c1ccncc1 (stereo not drawn) [Compound 44] | -7
Cc1ccc2c(c1)c1c(n2C(=O)Cc2ccc(Cl)cc2)CN2CCC1C2 (stereo not drawn) [Compound 36] | -18
C/C(=C\n1c2c(c3cc(C)ccc31)C1CCN(C2)C1)c1ccccc1F (stereo not drawn) [Compound 38] | 14
C/C(=C\n1c2c(c3cc(C)ccc31)C1CCN(C2)C1)c1ccc(Cl)cc1 (stereo not drawn) [Compound 32] | 36

Reference: patent publication US9271971B2, “Pyrido[3,4-B]indoles and methods of use” (Medivation Technologies, Inc., priority 2009, dated 2016)
